Test results reported in US4575498A, “Method for restoring depleted purine nucleotide pools” (priority 1983, dated 1986).

Experiments:
postischemic myocardium = experiment: Myocardial nucleotide and creatine phosphate content, coronary occlusion and reperfusion; format: in vivo, dogs
Method: Catheters were placed in the left atrium and aorta, and a snare positioned around the left anterior descending coronary artery in 15 open-chest dogs. Regional myocardial blood flow was measured and transmural tissue samples were obtained using known techniques. Blood flow measurements and tissue samples were obtained prior to and just before release of a 12-minute coronary occlusion. The chest was closed and the animals allowed to awaken. Twenty-four hours later, the animals were anesthetized, the chest opened, blood flow measured, and tissue samples obtained. No hemodynamic measurements were made on the animals.
In seven animals, 200 mM AICAriboside (Sigma Chemical Co.) was infused into the left atrial catether at either 14 μmol/min (n=2) or 37 μmol/min (n=5) beginning with coronary occlusion and continuing for 24 hours. Eight control animals were infused with an equal volume of saline over 24 hours.
Nucleotide and creatine phosphate analyses were performed by high performance liquid chromatography on acid extracts of the tissue as previously described. Nucleotide analysis is described in Example 1, and creatine phosphate analysis is described in Juengling and Kammermeier, Anal. Biochem., 102, 358-361 (1980).
All comparisons between AICAriboside and saline treated animals were done by unpaired analyses.

serum urate = experiment: Serum urate concentrations; format: in vivo, mongrel dogs; conditions: for Serum urate concentration: P < 0.05 vs control
Method: (§1) Animal Preparation--Seven adult mongrel dogs were anesthetized intramuscularly with 40 mg of morphine sulfate and intravenously with 80 mg/kg of chloralose, an endotraceal tube was inserted, and ventilation was maintained with an Emerson volume-cycled respirator and 100% oxygen. The heart was exposed through a left lateral thoracotomy, polyvinyl chloride catheters (3-mm outer diameter) were inserted into the left atrium and into the aorta through the right femoral artery, and a Statham TTQ electromagnetic flow meter probe was positioned around the ascending aorta. The aortic pressure catheter was connected to a Statham P23Db transducer (Statham Instruments, Inc., Oxnard, CA) with the zero reference at the midchest level. Aortic flow was measured with a Howell Instruments Series 1000 Flowmeter, and stroke volume and cardiac output were calculated from the aortic flow measurement. All hemodynamic data were monitored continuously throughout the course of the study. In 5 of the animals, the skin of the left dorsal hindlimb was opened and the gastrocnemius muscle was identified for subsequent tissue sampling.
(§2) After hemodynamic parameters had stabilized, regional myocardial blood flow was measured by injecting radioactively labled microspheres. Tissue samples were obtained from the left ventricle and from the left gastrocnemius muscle. A venous blood sample was also obtained. AICAriboside (100 mM) was then infused into the left atrium at 1.9 ml/min. Repeat tissue samples were taken from the left ventricle at 15, 30 and 42 min. of infusion, and tissue samples were taken from the gastrocnemius muscle at 30 min. of infusion. Venous and arterial blood samples were also obtained at 42 min. of infusion, and regional myocardial blood flow was measured at 10 and 39 min. of AICAriboside infusion. AICAriboside infusion was terminated after 42 min., and tissue samples were taken from the left ventricle at 10, 20, 30 and 60 min. postinfusion and from the left gastrocnemius muscle at 2, 22 and 60 min. postinfusion. Venous blood samples were obtained at 10, 30 and 60 min. after AICAriboside infusion. In 4 of the 7 dogs, 400 mM formate was infused intravenously at the rate of 1.9 ml/min. for 42 min. prior to and during AICAriboside infusion. These same animals also received 6 mg of folinic acid as an intravenous bolus 30 min. prior to and 15 min. after initiating AICAriboside infusion.
(§3) Other Methods--Serum urate was determined by the enzymatic spectrophotometric method as previously described in Liddle et al., J. Lab. Clin. Med., 54, 909-913 (1959).

[1] = Serum urate concentrations; format: in vivo, mongrel dogs; conditions: dog, in vivo; of 8 mmol infused, during 42 min; minimal estimate from serum urate increase and total body water; read-out: infused AICAriboside metabolized to purine nucleotides and subsequently catabolized
Method: as §1, §2, §3

[2] = AICAriboside plasma concentration during infusion; format: in vivo, mongrel dogs; conditions: dog, after 42 min of infusion, 100 mM at 1.9 ml/min into left atrium
Method: as §1, with “In 5 of the animals, the skin of the left dorsal hindlimb was opened and the gastrocnemius muscle was identified for subsequent tissue sampling.” left out
After hemodynamic parameters had stabilized, regional myocardial blood flow was measured by injecting radioactively labled microspheres. […] Venous and arterial blood samples were also obtained at 42 min. of infusion, and regional myocardial blood flow was measured at 10 and 39 min. of AICAriboside infusion. […]

[3] = endo, 24 Hr postischemic (first column)
[4] = endo, 24 Hr postischemic (second column so headed)
[5] = epi, 24 Hr postischemic (first column)
[6] = epi, 24 Hr postischemic (second column so headed)
[7] = epi, 24 Hr postischemic (second column so headed), P < 0.05 vs saline

In the case of `NC(=O)c1ncn([C@@H]2O[C@H](CO)[C@@H](O)[C@H]2O)c1N` [AICAriboside, 5-amino-4-imidazolecarboxamide riboside], the GTP content restoration (postischemic myocardium; 24 hours of reperfusion, saline 82% (epi), 78% (endo) of nonischemic levels) is reported as “restored to nonischemic levels”, the ADP (postischemic myocardium; [3]) is reported as 0.78 ± 0.09 μmol/g wet wt and the AMP (postischemic myocardium; [3]) is reported as 0.056 ± 0.019 μmol/g wet wt. For the same molecule, the “CP (creatine phosphate)” value (postischemic myocardium; [3]) was 7.8 ± 1.1 μmol/g wet wt, the CTP (postischemic myocardium; [3]) was 0.052 ± 0.005 μmol/g wet wt and the NAD (postischemic myocardium; [3]) was 0.57 ± 0.02 μmol/g wet wt. The UTP (postischemic myocardium; [3]) was 0.121 ± 0.013 μmol/g wet wt, the IMP (postischemic myocardium; endo, 24 Hr postischemic (first column), P < 0.05 vs saline) was 0.027 ± 0.007 μmol/g wet wt and the ADP (postischemic myocardium; [4]) was 0.75 ± 0.07 μmol/g wet wt. The AMP (postischemic myocardium; [4]) was 0.041 ± 0.005 μmol/g wet wt, the “CP (creatine phosphate)” value (postischemic myocardium; [4]) was 6.9 ± 0.5 μmol/g wet wt and the CTP (postischemic myocardium; [4]) was 0.056 ± 0.004 μmol/g wet wt. It also gave an NAD (postischemic myocardium; [4]) of 0.60 ± 0.05 μmol/g wet wt, a UTP (postischemic myocardium; [4]) of 0.106 ± 0.011 μmol/g wet wt and an IMP (postischemic myocardium; endo, 24 Hr postischemic (second column so headed), P < 0.05 vs saline) of 0.017 ± 0.004 μmol/g wet wt. For the same molecule, the ADP (postischemic myocardium; endo, occlusion) was 0.86 ± 0.06 μmol/g wet wt, the AMP (postischemic myocardium; endo, occlusion) was 0.089 ± 0.012 μmol/g wet wt and the “CP (creatine phosphate)” value (postischemic myocardium; endo, occlusion) was 2.0 ± 0.3 μmol/g wet wt. The CTP (postischemic myocardium; endo, occlusion) was 0.016 ± 0.003 μmol/g wet wt, the IMP (postischemic myocardium; endo, occlusion) was 0.008 ± 0.002 μmol/g wet wt and the NAD (postischemic myocardium; endo, occlusion) was 0.45 ± 0.02 μmol/g wet wt. The UTP (postischemic myocardium; endo, occlusion) was 0.055 ± 0.007 μmol/g wet wt, the “increase in ATP content” value (postischemic myocardium; endo, previously ischemic region, 24 hours of reperfusion, saline 21%) was 63% and the “ATP content vs saline-treated” value (postischemic myocardium; epi and endo, previously ischemic region, 24 hours of reperfusion, P<0.001) was “greater in the AICAriboside group”. For the same molecule, the ADP (postischemic myocardium; [5]) was 0.73 ± 0.05 μmol/g wet wt, the AMP (postischemic myocardium; [5]) was 0.048 ± 0.009 μmol/g wet wt and the “CP (creatine phosphate)” value (postischemic myocardium; [5]) was 7.1 ± 0.5 μmol/g wet wt. It also gave a CTP (postischemic myocardium; [5]) of 0.051 ± 0.004 μmol/g wet wt, an NAD (postischemic myocardium; [5]) of 0.56 ± 0.03 μmol/g wet wt and a UTP (postischemic myocardium; [5]) of 0.104 ± 0.121 μmol/g wet wt. It also gave an IMP (postischemic myocardium; epi, 24 Hr postischemic (first column), P < 0.05 vs saline) of 0.025 ± 0.007 μmol/g wet wt, an ADP (postischemic myocardium; [6]) of 0.70 ± 0.05 μmol/g wet wt and an AMP (postischemic myocardium; [6]) of 0.036 ± 0.005 μmol/g wet wt. For the same molecule, the “CP (creatine phosphate)” value (postischemic myocardium; [6]) was 7.8 ± 0.5 μmol/g wet wt, the CTP (postischemic myocardium; [6]) was 0.051 ± 0.005 μmol/g wet wt and the UTP (postischemic myocardium; [6]) was 0.096 ± 0.008 μmol/g wet wt. For the same molecule, the IMP (postischemic myocardium; [7]) was 0.015 ± 0.004 μmol/g wet wt, the NAD (postischemic myocardium; [7]) was 0.55 ± 0.02 μmol/g wet wt and the ADP (postischemic myocardium; epi, occlusion) was 0.99 ± 0.11 μmol/g wet wt. The AMP (postischemic myocardium; epi, occlusion) was 0.135 ± 0.045 μmol/g wet wt, the “CP (creatine phosphate)” value (postischemic myocardium; epi, occlusion) was 2.9 ± 0.7 μmol/g wet wt and the CTP (postischemic myocardium; epi, occlusion) was 0.023 ± 0.003 μmol/g wet wt. The IMP (postischemic myocardium; epi, occlusion) was 0.007 ± 0.001 μmol/g wet wt, the NAD (postischemic myocardium; epi, occlusion) was 0.47 ± 0.03 μmol/g wet wt and the UTP (postischemic myocardium; epi, occlusion) was 0.061 ± 0.007 μmol/g wet wt. The “increase in ATP content” value (postischemic myocardium; epi, previously ischemic region, 24 hours of reperfusion, saline 2%) was 41%, the “GTP content vs saline” value (postischemic myocardium; epicardium and endocardium of previously ischemic region, 24 hours of reperfusion, P<0.003) was “greater in the AICAriboside group” and the “AMP or ADP content vs saline” value (postischemic myocardium; postischemic region) was “no detectable differences”. The “UTP, CTP, or NAD^+ content vs saline” value (postischemic myocardium; postischemic region) was “no statistically significant differences”, the “total adenine nucleotide content (ATP+ADP+AMP) vs saline” value (postischemic myocardium; postischemic region) was “greater in the AICAriboside group” and the “creatine phosphate content restoration” value (postischemic myocardium; postischemic regions, both groups) was “restored to preocclusion levels”. For the same molecule, the “creatine phosphate fall at end of occlusion” value (postischemic myocardium; vs saline) was “fell to a comparable extent”, the “percentage drop in ATP during ischemia” value (postischemic myocardium; vs saline) was “comparable in both groups” and the Serum urate concentration (serum urate; 10 min postinfusion) was 3.5 ± 0.5 mg/dL. It also gave a Serum urate concentration (serum urate; 30 min postinfusion) of 2.9 ± 0.2 mg/dL, a Serum urate concentration (serum urate; 42 min of AICAriboside infusion) of 3.5 ± 0.4 mg/dL and a Serum urate concentration (serum urate; 60 min postinfusion) of 2.40 ± 0.4 mg/dL. For the same molecule, the “increase in mean serum urate concentration” value (serum urate; following infusion of 8 mmol of AICAriboside) was 3.7 fold, the metabolised at 0.7 h [1] was at least 25% and the concentration at 0.7 h [2] was 336 ± 26 µM.
